One test has as its target T1, Bcl-xL (Homo sapiens, UniProt Q07817).
T1 construct: gene BCL2L1; endogenous Bcl-xL
The test can be described thus: co-immunoprecipitation: displacement of Bak from endogenous Bcl-xL in REN cells at […]. Type of test: cell-based.

The target of another test is T2, Mcl-1 (Homo sapiens, UniProt Q07820).
T2 construct: gene MCL1
The test can be described thus: fluorescence polarization competition with FITC-Bak-BH3 peptide, […] Mcl-1 (IC50 […]); supported by co-IP in REN cells. Type of test: binding. (In general: Fluorescence polarisation rises when a labelled molecule tumbles more slowly, as on binding a larger partner.)

T2 sequence (Q07820 whole entry): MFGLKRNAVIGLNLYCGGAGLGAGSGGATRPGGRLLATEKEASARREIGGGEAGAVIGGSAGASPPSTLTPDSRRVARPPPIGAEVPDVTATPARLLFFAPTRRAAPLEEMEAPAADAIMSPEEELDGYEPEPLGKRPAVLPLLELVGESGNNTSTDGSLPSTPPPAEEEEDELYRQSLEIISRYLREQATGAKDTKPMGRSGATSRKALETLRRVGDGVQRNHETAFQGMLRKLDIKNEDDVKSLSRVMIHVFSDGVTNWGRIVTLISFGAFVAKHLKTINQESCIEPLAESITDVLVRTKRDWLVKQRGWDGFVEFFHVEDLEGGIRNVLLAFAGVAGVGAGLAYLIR
T1 sequence (Q07817 whole entry): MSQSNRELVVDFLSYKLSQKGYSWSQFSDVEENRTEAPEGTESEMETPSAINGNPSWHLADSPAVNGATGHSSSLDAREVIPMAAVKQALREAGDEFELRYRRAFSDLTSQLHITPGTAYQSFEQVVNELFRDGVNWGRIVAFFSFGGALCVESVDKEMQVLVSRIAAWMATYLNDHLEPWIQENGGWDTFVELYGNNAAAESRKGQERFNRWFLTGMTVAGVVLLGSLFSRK
T1 sequence (Q16611 2-211 partner): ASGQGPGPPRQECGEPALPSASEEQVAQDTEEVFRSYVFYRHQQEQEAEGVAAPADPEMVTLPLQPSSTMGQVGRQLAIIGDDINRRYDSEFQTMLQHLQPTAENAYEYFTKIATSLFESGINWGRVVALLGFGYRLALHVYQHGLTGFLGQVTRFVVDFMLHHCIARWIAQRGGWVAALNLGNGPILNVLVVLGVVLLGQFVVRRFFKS

Take `CC(C)Oc1cc(C(=O)Nc2ccc(C(=O)Nc3ccc(C(=O)O)cc3OC(C)C)nc2OC(C)C)ccc1N` [JY-1-106]: the “co-immunoprecipitation: displacement of Bak from endogenous Bcl-xL in REN cells” value on Bcl-xL was “JY-1-106 as well as ABT-737 can effectively displace Bak from its inhibitory binding with Bcl-xL”. In addition, on Mcl-1, the Ki is 1790 ± 150 nM.

A word on the Ki: it is the dissociation constant of the complex between target and ligand, obtained from inhibition or displacement. Low readings indicate a stronger hold on the target, high ones a looser hold on the target.

(Values after paper PMC3663763, “The novel BH3 α-helix mimetic JY-1-106 induces apoptosis in a subset of cancer cells (lung cancer, colon cancer and mesothelioma) by disrupting Bcl-xL and Mcl-1 protein–protein interactions with Bak” (Molecular Cancer, 2013).)
